According to patent US20220008444A1, “COMPOSITIONS FOR USE IN THE PREVENTION OR TREATMENT OF NECROTIZING ENTEROCOLITIS IN INFANTS AND YOUNG CHILDREN” (SOCIÉTÉ DES PRODUITS NESTLÉ S.A., priority 2013, published 2022):

Test system: NFkB
Assay: NFkB reporter cell line (HT29) stimulated with TNFalpha or gram negative bacterium, in conditioned media
Format: cell-based
Settings: HT29 NFkB reporter cells; cell culture media fermented with Bifidobacterium longum subsp infantis and the substance; stimulation with TNFalpha or S. typhymurium
Protocol: HT29 cells harbouring an expression plasmid with the NFkB promoter controlling an alkaline phosphatase were treated with different media and challenged with the proinflammatory TNFalpha or a gram negative bacterium such as Salmonella typhimurium. Treatments were cell culture media fermented with Bifidobacterium longum subsp infantis and (i) lactose or (ii) Lacto-N-tetraose (LNT).
The cells harbored an expression plasmid with the NF-κB promoter controlling an alkaline phosphatase so that stimulation by TNF-α or a gram negative bacterium would be indicated by fluorescence generated by interaction of the alkaline phosphatase with a fluorogenic substrate. […] This indicates LNT to exert a strong anti-inflammatory effect. Conditioned media with LNT lead to higher resistance of the cells upon proinflammatory TNFalpha or a gram negative bacterial stimulation. Intestinal epithelia cells in media conditioned by LNT (lacto-N-tetraose) and Bifidobacterium fermentation products are more resistant to proinflammatory stimulation by TNFalpha as compared to cells in a control medium conditioned by lactose and Bifidobacterium fermentation products.

CC(=O)N[C@H]1[C@H](O[C@H]2[C@@H](O)[C@@H](CO)O[C@@H](O[C@H]3[C@H](O)[C@@H](O)C(O)O[C@@H]3CO)[C@@H]2O)O[C@H](CO)[C@@H](O)[C@@H]1O[C@@H]1O[C@H](CO)[C@H](O)[C@H](O)[C@H]1O (some centres unmarked) [LNT, lacto-N-tetraose]
activation of the inflammation marker nuclear factor kappa B (NFkB): no stimulation

OC[C@H]1O[C@@H](O[C@H]2[C@H](O)[C@@H](O)C(O)O[C@@H]2CO)[C@H](O)[C@@H](O)[C@H]1O (some centres unmarked) [lactose]
activation of the inflammation marker nuclear factor kappa B (NFkB): very strong stimulation
